In ChEMBL document CHEMBL4651402, “Screening of ~5500 FDA-approved drugs and clinical candidates for anti-SARS-CoV-2 activity” (2021):
Where a name gives a salt, the structure may show the parent alone.

System: SARS-CoV-2
Experiment: microbe, parasite or virus in culture
Conditions: Severe acute respiratory syndrome coronavirus 2, Vero C1008, 48 h

| Compound | IC50 | IC50 (read-out: pIC50 (converted)) |
| --- | --- | --- |
| CN(C)CCOC(c1ccccc1)c1ccnn1C (stereo not drawn) [CIZOLIRTINE] | > 20 µM | > 20 µM |
| CCCCCCCCCCC(C)(C)C(=O)Nc1c(OC)cc(OC)cc1OC [CL-976] | > 20 µM | > 20 µM |
| CC[C@H]1OC(=O)[C@H](C)[C@@H](O[C@H]2C[C@@](C)(OC)[C@@H](O)[C@H](C)O2)[C@H](C)[C@@H](O[C@@H]2O[C@H](C)C[C@H](N(C)C)[C@H]2O)[C@](C)(OC)C[C@@H](C)C(=O)[C@H](C)[C@@H](O)[C@]1(C)O [CLARITHROMYCIN] | > 20 µM | > 20 µM |
| O=C(O)[C@H]1/C(=C/CO)O[C@@H]2CC(=O)N21 [CLAVULANIC ACID] | > 20 µM | > 20 µM |
| CN1C(=O)CN2CCc3ccccc3C2c2cc(Cl)ccc21 (stereo not drawn) [CLAZOLAM] | > 20 µM | > 20 µM |
| N#CC(c1ccc(Cl)cc1)c1ccc(-n2ncc(=O)[nH]c2=O)cc1Cl (stereo not drawn) [CLAZURIL] | > 20 µM | > 20 µM |
| COc1cc(N)c(Cl)cc1C(=O)NC1CCN(Cc2ccccc2)CC1 [CLEBOPRIDE] | > 20 µM | > 20 µM |
| Clc1ccc(Cn2c(CN3CCCC3)nc3ccccc32)cc1 [CLEMIZOLE] | > 20 µM | > 20 µM |
| CC(C)(C)NCC(O)c1cc(Cl)c(N)c(Cl)c1 (stereo not drawn) [CLENBUTEROL] | > 20 µM | > 20 µM |
| NC1CCN(c2c(F)cc3c(=O)c(C(=O)O)cn(C4CC4)c3c2Cl)C1 (stereo not drawn) [CLINAFLOXACIN] | > 20 µM | > 20 µM |
| CCC[C@@H]1C[C@@H](C(=O)N[C@@H]([C@H]2O[C@H](SC)[C@H](O)[C@@H](O)[C@H]2O)[C@H](C)Cl)N(C)C1 [CLINDAMYCIN HYDROCHLORIDE] | > 20 µM | > 20 µM |
| Oc1c(I)cc(Cl)c2cccnc12 [CLIOQUINOL] | > 20 µM | > 20 µM |
| CN1C(=O)CC(=O)N(c2ccccc2)c2cc(Cl)ccc21 [CLOBAZAM] | > 20 µM | > 20 µM |
| CCC(=O)O[C@]1(C(=O)CCl)[C@@H](C)C[C@H]2[C@@H]3CCC4=CC(=O)C=C[C@]4(C)[C@@]3(F)[C@@H](O)C[C@@]21C [CLOBETASOL PROPIONATE] | > 20 µM | > 20 µM |
| C[C@H]1C[C@H]2[C@@H]3CCC4=CC(=O)C=C[C@]4(C)[C@@]3(F)[C@@H](O)C[C@]2(C)[C@@]1(O)C(=O)CCl [CLOBETASOL] | > 20 µM | > 20 µM |
| CC(CN(C)C)C(C)(O)Cc1ccc(Cl)cc1 (stereo not drawn) [CLOBUTINOL] | > 20 µM | > 20 µM |
| NC(=O)C1(N2CCCCC2)CCN(CCCN2c3ccccc3CCc3ccc(Cl)cc32)CC1 [CLOCAPRAMINE] | > 20 µM | > 20 µM |
| C[C@@H]1C[C@H]2[C@@H]3C[C@H](F)C4=CC(=O)C=C[C@]4(C)[C@@]3(Cl)[C@@H](O)C[C@]2(C)[C@H]1C(=O)COC(=O)C(C)(C)C [CLOCORTOLONE PIVALATE] | > 20 µM | > 20 µM |
| CCN(CC)CCN(CC)CC(=O)Nc1ccccc1Cl [CLODACAINE] | > 20 µM | > 20 µM |
| CN(C)CCCn1c(=O)n(-c2ccccc2)c2cc(Cl)ccc21 [CLODAZON] | > 20 µM | > 20 µM |

| Compound | IC50 | IC50 (read-out: pIC50 (converted)) |
| --- | --- | --- |
| Nc1nc(Cl)nc2c1ncn2[C@@H]1O[C@H](CO)[C@@H](O)[C@@H]1F [CLOFARABINE] | > 20 µM | > 20 µM |
| CC(C)/N=c1\cc2n(-c3ccc(Cl)cc3)c3ccccc3nc-2cc1Nc1ccc(Cl)cc1 [CLOFAZIMINE] | > 20 µM | > 20 µM |
| CCN(CC)CCNC(=O)COc1ccc(Cl)cc1 [CLOFEXAMIDE] | > 20 µM | > 20 µM |
| CCOC(=O)C(C)(C)Oc1ccc(Cl)cc1 [CLOFIBRATE] | > 20 µM | > 20 µM |
| CC(C)(Oc1ccc(Cl)cc1)C(=O)O [CLOFIBRIC ACID] | > 20 µM | > 20 µM |
| CC(C)(C)CC(C)(C)c1ccc(O)c(Cc2ccc(Cl)cc2Cl)c1 [CLOFOCTOL] | > 20 µM | > 20 µM |
| CN(C)CCCC1c2ccccc2Nc2ccc(Cl)cc21 (stereo not drawn) [CLOMACRAN] | > 20 µM | > 20 µM |
| NC1=NCC(c2ccc(Cl)cc2)O1 (stereo not drawn) [CLOMINOREX] | > 20 µM | > 20 µM |
| O=C1CN=C(c2ccccc2Cl)c2cc([N+](=O)[O-])ccc2N1 [CLONAZEPAM] | > 20 µM | > 20 µM |
| Clc1cccc(Cl)c1NC1=NCCN1 [CLONIDINE] | > 20 µM | > 20 µM |
| Cc1c(Cl)cccc1Nc1ncccc1C(=O)OCC(O)CO (stereo not drawn) [CLONIXERIL] | > 20 µM | > 20 µM |
| Cc1c(Cl)cccc1Nc1ncccc1C(=O)O [CLONIXIN] | > 20 µM | > 20 µM |
| C[C@@H]1CCC[C@H](C)N1NC(=O)c1ccc(Cl)c(S(N)(=O)=O)c1 [CLOPAMIDE] | > 20 µM | > 20 µM |
| Clc1ccc(C(OCCN2CCCCC2)c2ccccc2)cc1 (stereo not drawn) [CLOPERASTINE] | > 20 µM | > 20 µM |
| Cc1nc(C)c(Cl)c(O)c1Cl [CLOPIDOL] | > 20 µM | > 20 µM |
| O=c1[nH]c2cc(Cl)ccc2n1C1CCN(CCCC(c2ccc(F)cc2)c2ccc(F)cc2)CC1 [CLOPIMOZIDE] | > 20 µM | > 20 µM |
| Cc1cc(CC(=O)O)c(C)n1-c1ccc(Cl)cc1 [CLOPIRAC] | > 20 µM | > 20 µM |
| C#CCN(C)CCCOc1ccc(Cl)cc1Cl [CLORGILINE] | > 20 µM | > 20 µM |
| O=C1c2ccccc2C(=O)C1c1ccc(Cl)cc1 [CLORINDIONE] | > 20 µM | > 20 µM |
| O=C(CCCN1CCC(C(=O)c2ccc(Cl)cc2)CC1)c1ccc(F)cc1 [CLOROPERONE] | > 20 µM | > 20 µM |

| Compound | IC50 | IC50 (read-out: pIC50 (converted)) |
| --- | --- | --- |
| CN1CCN(C2Cc3ccccc3Sc3ccc(Cl)cc32)CC1 (stereo not drawn) [CLOROTEPINE] | > 20 µM | > 20 µM |
| CC(C)NCC(O)c1ccccc1Cl (stereo not drawn) [CLORPRENALINE] | > 20 µM | > 20 µM |
| Nc1cc(C(Cl)=C(Cl)Cl)c(S(N)(=O)=O)cc1S(N)(=O)=O [CLORSULON] | > 20 µM | > 20 µM |
| CC(C)(N)Cc1ccccc1Cl [CLORTERMINE] | > 20 µM | > 20 µM |
| Cc1cc(C(C#N)c2ccc(Cl)cc2)c(Cl)cc1NC(=O)c1cc(I)cc(I)c1O (stereo not drawn) [CLOSANTEL] | > 20 µM | > 20 µM |
| CN1CCN(C2=Nc3ccccc3Sc3ccc(Cl)cc32)CC1 [CLOTHIAPINE] | > 20 µM | > 20 µM |
| Clc1ccccc1C(c1ccccc1)(c1ccccc1)n1ccnc1 [CLOTRIMAZOLE] | > 20 µM | > 20 µM |
| Cc1onc(-c2ccccc2Cl)c1C(=O)N[C@@H]1C(=O)N2[C@@H]1SC(C)(C)[C@@H]2C(=O)O [CLOXACILLIN] | > 20 µM | > 20 µM |
| O=C1CN2CCOC2(c2ccccc2Cl)c2cc(Cl)ccc2N1 (stereo not drawn) [CLOXAZOLAM] | > 20 µM | > 20 µM |
| Oc1ccc(Cl)c2cccnc12 [CLOXYQUIN] | > 20 µM | > 20 µM |
| CN1CCN(C2=Nc3cc(Cl)ccc3Nc3ccccc32)CC1 [CLOZAPINE] | > 20 µM | > 20 µM |
| COC(=O)[C@H]1[C@@H](OC(=O)c2ccccc2)C[C@@H]2CC[C@H]1N2C [COCAINE] | > 20 µM | > 20 µM |
| C=C[C@@]1(C)CC(=O)[C@]2(O)[C@@]3(C)[C@@H](O)CCC(C)(C)[C@@H]3[C@H](O)[C@H](OC(C)=O)[C@@]2(C)O1 [COLFORSIN] | > 20 µM | > 20 µM |
| CC(C)(C)NCC(O)c1ccc(O)c(O)c1 (stereo not drawn) [COLTEROL] | > 20 µM | > 20 µM |
| COc1ccc(/C=C\c2cc(OC)c(OC)c(OC)c2)cc1O [COMBRETASTATIN A4] | > 20 µM | > 20 µM |
| C[C@@H]1O[C@@H](O[C@H]2CC[C@]3(C=O)[C@H]4CC[C@]5(C)[C@@H](C6=CC(=O)OC6)CC[C@]5(O)[C@@H]4CC[C@]3(O)C2)[C@H](O)[C@H](O)[C@H]1O [CONVALLATOXIN] | > 20 µM | > 20 µM |
| Nc1ncnc2c1ncn2[C@@H]1O[C@H](CO)C[C@H]1O [CORDYCEPIN] | > 20 µM | > 20 µM |
| CCOC[C@]12Cc3cnn(-c4ccc(F)cc4)c3C=C1CCN(S(=O)(=O)c1ccc(C(F)(F)F)cc1)C2 [CORT 108297] | > 20 µM | > 20 µM |
| C[C@]12C[C@H](O)[C@H]3[C@@H](CCC4=CC(=O)CC[C@@]43C)[C@@H]1CC[C@@H]2C(=O)CO [CORTICOSTERONE] | > 20 µM | > 20 µM |
